Test results published in the NIST ThermoML archive (doi:10.1021/je800110r).

Conditions: Liquid, Vibrating tube method

CCCCCCCCCC [decane]
Conditions	mass density [kg/m3]
293.15 K, 34214 kPa	753.1
293.15 K, 34239 kPa	753.1
293.15 K, 34259 kPa	753.1
293.15 K, 34285 kPa	753.1
293.15 K, 34303 kPa	753.1
293.16 K, 19215 kPa	743.7
293.16 K, 19235 kPa	743.6
293.16 K, 19274 kPa	743.8
293.16 K, 19292 kPa	743.6
293.16 K, 19437 kPa	743.9
293.16 K, 33877 kPa	753
303.14 K, 364 kPa	722.4
303.14 K, 380 kPa	722.3
303.14 K, 402 kPa	722.5
303.14 K, 424 kPa	722.6
303.14 K, 441 kPa	722.6
303.14 K, 462 kPa	722.5
303.14 K, 488 kPa	722.6
303.14 K, 520 kPa	722.6
303.14 K, 547 kPa	722.7
303.14 K, 571 kPa	722.7
303.14 K, 602 kPa	722.8
303.14 K, 632 kPa	722.7
303.14 K, 677 kPa	722.6
303.14 K, 720 kPa	722.8
303.14 K, 760 kPa	722.8
303.14 K, 810 kPa	722.9
303.14 K, 862 kPa	723
303.14 K, 904 kPa	723
303.14 K, 946 kPa	723
303.14 K, 997 kPa	723
303.14 K, 1037 kPa	723
303.14 K, 1220 kPa	723.2
303.14 K, 1295 kPa	723.2
303.14 K, 1434 kPa	723.4
303.14 K, 1467 kPa	723.4
303.14 K, 1497 kPa	723.4
303.14 K, 1538 kPa	723.5
303.14 K, 1586 kPa	723.5
303.14 K, 1619 kPa	723.4
303.14 K, 1670 kPa	723.5
303.14 K, 1705 kPa	723.5
303.14 K, 1760 kPa	723.6
303.14 K, 1816 kPa	723.7
303.14 K, 1856 kPa	723.7
303.14 K, 1904 kPa	723.8
303.14 K, 1955 kPa	723.9
303.14 K, 1986 kPa	724
303.14 K, 2021 kPa	723.9
303.14 K, 2067 kPa	723.9
303.14 K, 2099 kPa	723.9
303.14 K, 2132 kPa	723.9
303.14 K, 2177 kPa	724
303.14 K, 2229 kPa	724
303.14 K, 2270 kPa	723.9
303.14 K, 2320 kPa	724.1
303.14 K, 2376 kPa	724.2
303.14 K, 2415 kPa	724.1
303.14 K, 2455 kPa	724.1
303.14 K, 2518 kPa	724.3
303.14 K, 2560 kPa	724.3
303.14 K, 2611 kPa	724.3
303.14 K, 2680 kPa	724.4
303.14 K, 2736 kPa	724.4
303.14 K, 2782 kPa	724.5
303.14 K, 2818 kPa	724.6
303.14 K, 2834 kPa	724.6
303.14 K, 3457 kPa	725
303.14 K, 3518 kPa	725.1
303.15 K, 1065 kPa	723
303.15 K, 1099 kPa	723.2
303.15 K, 1144 kPa	723.2
303.15 K, 1175 kPa	723.2
303.15 K, 1261 kPa	723.3
303.15 K, 1325 kPa	723.2
303.15 K, 1363 kPa	723.2
303.15 K, 1385 kPa	723.3
303.15 K, 2849 kPa	724.6
303.15 K, 2899 kPa	724.6
303.15 K, 2942 kPa	724.7
303.15 K, 2968 kPa	724.7
303.15 K, 3005 kPa	724.8
303.15 K, 3039 kPa	724.6
303.15 K, 3070 kPa	724.7
303.15 K, 3105 kPa	724.8
303.15 K, 3140 kPa	724.8
303.15 K, 3167 kPa	724.9
303.15 K, 3207 kPa	724.8
303.15 K, 3250 kPa	724.9
303.15 K, 3283 kPa	725
303.15 K, 3333 kPa	724.9
303.15 K, 3363 kPa	725
303.15 K, 3400 kPa	725
303.15 K, 3487 kPa	725.1
303.15 K, 3503 kPa	724.9
303.15 K, 3530 kPa	725.1
303.15 K, 3542 kPa	725
303.15 K, 3556 kPa	725.2
303.15 K, 3568 kPa	725.1
303.15 K, 3587 kPa	725.2
303.15 K, 3606 kPa	725.2
303.15 K, 3618 kPa	725.1
303.15 K, 3637 kPa	725.3
303.15 K, 3655 kPa	725.2
303.15 K, 3668 kPa	725.4
303.15 K, 3688 kPa	725.3
303.15 K, 3707 kPa	725.2
303.15 K, 3720 kPa	725.3
303.15 K, 3735 kPa	725.3
303.15 K, 3753 kPa	725.3
303.15 K, 3770 kPa	725.3
303.15 K, 3790 kPa	725.3
303.15 K, 3808 kPa	725.3
303.15 K, 3820 kPa	725.3
303.15 K, 3840 kPa	725.4
303.15 K, 3855 kPa	725.4
303.15 K, 3871 kPa	725.3
303.15 K, 3885 kPa	725.3
303.15 K, 3902 kPa	725.5
303.15 K, 3916 kPa	725.5
303.15 K, 3938 kPa	725.5
303.15 K, 3958 kPa	725.4
303.15 K, 3974 kPa	725.4
303.15 K, 3988 kPa	725.4
303.15 K, 4013 kPa	725.5
303.15 K, 4029 kPa	725.5
303.15 K, 4042 kPa	725.6
303.15 K, 4059 kPa	725.5
303.15 K, 4074 kPa	725.5
303.15 K, 4089 kPa	725.6
303.15 K, 4104 kPa	725.6
303.15 K, 4122 kPa	725.6
303.15 K, 4137 kPa	725.5
303.15 K, 4153 kPa	725.7
303.15 K, 4172 kPa	725.7
303.15 K, 4188 kPa	725.7
303.15 K, 24341 kPa	740.5
303.15 K, 24369 kPa	740.3
303.15 K, 24389 kPa	740.3
303.15 K, 24417 kPa	740.4
303.15 K, 24444 kPa	740.4
303.15 K, 24484 kPa	740.5
303.15 K, 24509 kPa	740.4
303.15 K, 24577 kPa	740.5
303.15 K, 24654 kPa	740.6
303.15 K, 24804 kPa	740.6
303.15 K, 24833 kPa	740.7
303.15 K, 24870 kPa	740.7
303.15 K, 24908 kPa	740.7
303.15 K, 24929 kPa	740.7
303.15 K, 24962 kPa	740.7
303.15 K, 24995 kPa	740.8
303.15 K, 25025 kPa	740.7
303.15 K, 25050 kPa	740.7
303.15 K, 25648 kPa	741.1
303.15 K, 25678 kPa	741.3
303.15 K, 25713 kPa	741.2
303.15 K, 25744 kPa	741.3
303.15 K, 25771 kPa	741.3
303.15 K, 25839 kPa	741.3
303.15 K, 25875 kPa	741.2
303.15 K, 25902 kPa	741.4
303.15 K, 25935 kPa	741.4
303.15 K, 25959 kPa	741.5
303.15 K, 26009 kPa	741.4
303.15 K, 26041 kPa	741.5
303.15 K, 26073 kPa	741.5
303.15 K, 26100 kPa	741.5
303.15 K, 26137 kPa	741.5
303.15 K, 26164 kPa	741.5
303.15 K, 26206 kPa	741.5
303.15 K, 26242 kPa	741.5
303.15 K, 26270 kPa	741.6
303.15 K, 26309 kPa	741.6
303.15 K, 26334 kPa	741.6
303.15 K, 26357 kPa	741.7
303.15 K, 26400 kPa	741.7
303.15 K, 26433 kPa	741.8
303.15 K, 26465 kPa	741.7
303.15 K, 26494 kPa	741.7
303.15 K, 26532 kPa	741.8
303.15 K, 26574 kPa	741.8
303.15 K, 26607 kPa	741.9
303.15 K, 26640 kPa	741.8
303.15 K, 26684 kPa	741.9
303.15 K, 26718 kPa	741.8
303.15 K, 26752 kPa	741.9
303.15 K, 26781 kPa	741.9
303.15 K, 26820 kPa	741.9
303.15 K, 26844 kPa	741.9
303.15 K, 26884 kPa	741.9
303.15 K, 26923 kPa	742
303.15 K, 26947 kPa	742
303.15 K, 26982 kPa	742.1
303.15 K, 27007 kPa	742
303.15 K, 27037 kPa	742.2
303.15 K, 27071 kPa	742.1
303.15 K, 27116 kPa	742.2
303.15 K, 27156 kPa	742.2
303.15 K, 27186 kPa	742.1
303.15 K, 27226 kPa	742.2
303.15 K, 27262 kPa	742.2
303.15 K, 27298 kPa	742.3
303.15 K, 27333 kPa	742.3
303.15 K, 27375 kPa	742.4
303.15 K, 27400 kPa	742.4
303.15 K, 27431 kPa	742.3
303.15 K, 27462 kPa	742.4
303.15 K, 27503 kPa	742.3
303.15 K, 27535 kPa	742.4
303.15 K, 27585 kPa	742.4
303.15 K, 27622 kPa	742.4
303.15 K, 27666 kPa	742.4
303.15 K, 27697 kPa	742.5
303.15 K, 27724 kPa	742.6
303.15 K, 27748 kPa	742.5
303.15 K, 27771 kPa	742.6
303.15 K, 27803 kPa	742.5
303.15 K, 27827 kPa	742.7
303.15 K, 27859 kPa	742.6
303.15 K, 27890 kPa	742.6
303.15 K, 27923 kPa	742.8
303.15 K, 27952 kPa	742.6
303.15 K, 27975 kPa	742.7
303.15 K, 27999 kPa	742.8
303.15 K, 28032 kPa	742.7
303.15 K, 28057 kPa	742.8
303.15 K, 28085 kPa	742.7
303.15 K, 28118 kPa	742.9
303.15 K, 28151 kPa	742.8
303.15 K, 28180 kPa	742.9
303.15 K, 28205 kPa	742.8
303.15 K, 28234 kPa	742.9
303.15 K, 28258 kPa	742.9
303.15 K, 28289 kPa	742.9
303.15 K, 28314 kPa	742.9
303.15 K, 28343 kPa	743
303.15 K, 28369 kPa	743
303.15 K, 28399 kPa	743.1
303.15 K, 28443 kPa	743
303.15 K, 28470 kPa	743.1
303.15 K, 28511 kPa	743.2
303.15 K, 28542 kPa	743.1
303.15 K, 28562 kPa	743.1
303.15 K, 28584 kPa	743.2
303.15 K, 28605 kPa	743.1
303.15 K, 28622 kPa	743.2
303.15 K, 28643 kPa	743.1
303.15 K, 28666 kPa	743.1
303.15 K, 28685 kPa	743.3
303.15 K, 28705 kPa	743.2
303.15 K, 28725 kPa	743.2
303.15 K, 28754 kPa	743.3
303.15 K, 28771 kPa	743.3
303.15 K, 28791 kPa	743.3
303.15 K, 28809 kPa	743.2
303.15 K, 28826 kPa	743.2
303.15 K, 28844 kPa	743.4
303.15 K, 28865 kPa	743.2
303.15 K, 28885 kPa	743.3
303.15 K, 28902 kPa	743.2
303.15 K, 28928 kPa	743.4
303.15 K, 28945 kPa	743.3
303.15 K, 28966 kPa	743.4
303.15 K, 28986 kPa	743.4
303.15 K, 29000 kPa	743.5
303.15 K, 29018 kPa	743.4
303.15 K, 29042 kPa	743.4
303.15 K, 29062 kPa	743.4
303.15 K, 29083 kPa	743.4
303.15 K, 29107 kPa	743.4
303.15 K, 29131 kPa	743.5
303.15 K, 29154 kPa	743.4
